Test results reported in publication PMC11035696, “Prospective de novo drug design with deep interactome learning” (Nature Communications, 2024).

Key:
[1] = biological target: T1, PPARγ LBD protein (Homo sapiens, UniProt P37231); experiment: Isothermal titration calorimetry (ITC); assay type: binding
T1 construct: PPARγ LBD protein (30 μM, prepared as described previously[106]); made in house
Experimental: (§1) Compounds 1–3 were characterized in a hybrid reporter gene assay for their agoniztic effect on human nuclear receptors PPARα/γ/δ, RXRα, FXRα, RARα in HEK293T cells. Compound 1 was tested in an isothermal titration calorimetry (ITC) assay to measure direct binding affinity to the ligand-binding domain of PPARγ. ADME properties were measured in standardized assays at Roche.
ITC experiments were conducted on an Affinity ITC instrument (TA Instruments, New Castle, DE) at 25 °C with a stirring rate of 75 rpm. PPARγ LBD protein (30 μM, prepared as described previously[106]) in buffer (20 mM Tris pH 7.5, 150 mM NaCl, 5% glycerol) containing 5% DMSO was titrated with the test compound (1) (100 μM in the same buffer containing 5% DMSO) in 21 injections (1 × 1μl and 20 × 5μl) with an injection interval of 120 s. The test compound was titrated into buffer, and the buffer was titrated to the PPARγ LBD proteins under otherwise identical conditions. The ITC results were analyzed using NanoAnalyze software (TA Instruments, New Castle, DE) with an independent binding model.

[2] = biological target: T2, human PPARα (Homo sapiens, UniProt Q07869); experiment: Gal4-hybrid reporter gene assay, PPARα activation; assay type: cell-based; details: hybrid reporter gene assay, result in words
T2 construct: expressed in transfected cells; host or cells: HEK293T
T2 sequence (Q07869 239-466 limits assumed): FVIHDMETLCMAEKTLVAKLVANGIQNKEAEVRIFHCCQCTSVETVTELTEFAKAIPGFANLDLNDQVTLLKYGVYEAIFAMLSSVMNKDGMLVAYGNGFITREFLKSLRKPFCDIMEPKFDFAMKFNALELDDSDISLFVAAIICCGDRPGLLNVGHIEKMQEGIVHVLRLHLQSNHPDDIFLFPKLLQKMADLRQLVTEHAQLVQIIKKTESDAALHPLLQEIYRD
Experimental: as §1
PPAR activation was determined in uniform Gal4-hybrid reporter gene assays for the PPARα, PPARγ and PPARδ isoforms in HEK293T cells (German Collection of Microorganisms and Cell Culture GmbH, DSMZ) which were transiently transfected with pFR-Luc (Stratagene, La Jolla, CA, USA; reporter) and pRL-SV40 (Promega, Madison, WI, USA; internal control) and one pFA-CMV-hPPAR-LBD[97] clone, coding for the hinge region and ligand binding domain of the canonical isoform of human PPARα, PPARγ, PPARδ or respectively. Cells were cultured in Dulbecco’s modified Eagle’s medium (DMEM), high glucose supplemented with 10% fetal calf serum (FCS), sodium pyruvate (1 mM), penicillin (100 U ⋅ ml^-1), and streptomycin (100 μg ⋅ ml^-1) at 37 °C and 5% CO2 and seeded in 96-well plates (3 × 10^4 cells per well). After 24 h, medium was changed to Opti-MEM without supplements and cells were transiently transfected using Lipofectamine LTX reagent (Invitrogen) according to the manufacturer’s protocol. Five hours after transfection, cells were incubated with the test compounds in Opti-MEM supplemented with penicillin (100 U ⋅ ml^-1), streptomycin (100 μg ⋅ ml^-1) and 0.1% DMSO for 16 h before luciferase activity was measured using the Dual-Glo Luciferase Assay System (Promega) according to the manufacturer’s protocol on a Tecan Spark luminometer (Tecan Deutschland GmbH, Germany). Firefly luminescence was divided by Renilla luminescence and multiplied by 1000 resulting in relative light units (RLU) to normalize for transfection efficiency and cell growth. Fold activation was obtained by dividing the mean RLU of a test compound by the mean RLU of the untreated control. All samples were tested in at least three biologically independent experiments in duplicates. For dose-response curve fitting and calculation of EC50 values, the equation “[Agonist] versus response (variable slope—four parameters)” was used in GraphPad Prism (version 7.00, GraphPad Software, La Jolla, CA, USA) with fold activation data. The reference agonizts GW7647 (PPARα)[98],[99], pioglitazone (PPARγ)[100],[101] and L165,041 (PPARδ)[102],[103] were used to validate the assays and to monitor assay performance. Nuclear receptor selectivity profiling was performed with corresponding pFA-CMV-hNR-LBD clones and suitable reference agonizts on RARα (pFA-CMV-hRARα-LBD[104], 1 μM tretinoin), LXRα (pFA-CMV-hLXRα-LBD[104], 1 μM TO901317) and RXRα (pFA-CMV-h RXRα-LBD[105], 1 μM Bexarotene).

[3] = Parallel artificial membrane permeability assay (PAMPA); assay type: in vitro ADME; details: PAMPAPEFF permeation coefficient
Experimental: as §1
SI11Absorption Distribution Metabolism and Excretion and Toxicity Data
To assess the drug-like characteristics of the newly designed PPAR modulators, a series of tests were conducted covering various aspects of absorption, distribution, metabolism, and excretion (ADME) properties. Specifically, these assessments included the parallel artificial membrane permeability assay (PAMPA) with permeation co- […]
efficients ([…]), LogD measurements, microsomal clearance, hepatocyte clearance, P-glycoprotein (Pgp) efflux ratio and binding and the unbound free fraction. […]
Table S14: Absorption distribution metabolism and excretion (ADME) properties of compounds 1 and 2. The […]
values for […], LogD, protein binding, P-glycoprotein (Pgp) efflux ratio and permeability, and hepato-cyte clearance are presented as the mean and standard deviation, with a sample size of N = 3, i.e., 3 technical replicates each. The values for microsomal clearance and CYP-inhibition represent single point measurements. […]

T1 sequence (P37231 238-503 limits assumed): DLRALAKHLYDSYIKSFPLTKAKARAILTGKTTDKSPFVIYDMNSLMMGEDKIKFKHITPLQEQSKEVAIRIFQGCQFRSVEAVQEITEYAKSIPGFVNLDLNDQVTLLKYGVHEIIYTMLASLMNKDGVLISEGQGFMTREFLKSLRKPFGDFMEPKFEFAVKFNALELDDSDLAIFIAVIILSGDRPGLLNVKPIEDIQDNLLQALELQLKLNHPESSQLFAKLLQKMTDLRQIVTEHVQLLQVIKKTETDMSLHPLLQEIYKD

SMILES	molar ratio (ligand per protein) [1]	Kd ([1]; 25 °C, ligand binding domain of PPARγ, read-out: dissociation constant KD) [nM]	activity on PPARα [2]	Papp [3] [×10⁻⁶ cm/s]
Cc1nnc(-c2ccc(OCCCOc3ccc(CCC(=O)O)c(F)c3)c(F)c2)s1 [Compound 1]	one ligand per protein molecule	800 ± 100		
COc1ccc(Oc2ccc3ncn(CCOc4ccc(CCC(=O)O)cc4)c3c2)cc1 [Compound 2]			no discernible impact	3.9
